Results on 53 compounds are retold here after the RepoRT retention time repository (doi:10.1021/acs.analchem.1c00972).

Structures are written as SMILES.

Series [1] is described as follows: RP, Waters ACQUITY UPLC BEH C18, 100 × 1 mm, 1.7 µm, 50 °C, 0.3 mL/min, estimated dead time 0.17 min; A: water + 10 mM ammonium bicarbonate; B: 10% water + 90% methanol + 10 mM ammonium bicarbonate; gradient (min/%B) 0/0 15/100 21/100 22/0 30/0. The conditions noted are these: stereoisomer not certain.
The nature of series [2]: RP, Waters ACQUITY UPLC BEH C18, 100 × 1 mm, 1.7 µm, 50 °C, 0.3 mL/min, estimated dead time 0.17 min; A: water + 0.1% formic acid + 20 mM ammonium formate; B: methanol + 0.1% formic acid + 20 mM ammonium formate; gradient (min/%B) 0/0 15/100 21/100 22/0 30/0. The conditions noted are these: stereoisomer not certain.

With `CCC(C)C1OC2(CCC1C)CC1CC(CC=C(C)C(OC3CC(OC)C(OC4CC(OC)C(O)C(C)O4)C(C)O3)C(C)C=CC=C3COC4C(O)C(C)=CC(C(=O)O1)C34O)O2` (stereo unspecified) [Ivermectin B1a], the figures for the LC retention time in series [1] and in series [2] were 19.3 min and 18.8 min, respectively.
As for `COc1ccc(C2Sc3ccccc3N(CCN(C)C)C(=O)C2OC(C)=O)cc1` (stereo unspecified) [Diltiazem], the figures for the LC retention time in series [1] and in series [2] were 15.5 min and 11.8 min, respectively.
With `CC(C1CC1)C(O)(Cn1cncn1)c1ccc(Cl)cc1` (stereo unspecified) [Cyproconazole], the LC retention time in series [1] is 15 min; in series [2], 14.5 min.
For the compound `O=c1cccc2n1CC1CNCC2C1` (stereo unspecified) [Cytisin], the LC retention time was 7.53 min in series [1] and 2.31 min in series [2].
As for `CCC1OC(=O)CC(O)C(C)C(OC2OC(C)C(OC3CC(C)(O)C(O)C(C)O3)C(N(C)C)C2O)C(CC=O)CC(C)C(=O)C=CC(C)=CC1COC1OC(C)C(O)C(OC)C1OC` (stereo unspecified) [Tylosin], the LC retention time in series [1] is 15.5 min; in series [2], 13.1 min.
Consider `CC=C1C2C=C(C)CC1(N)c1ccc(=O)[nH]c1C2` (stereo unspecified) [Huperzin A], for which the LC retention time was 11.1 min in series [1] and 7.5 min in series [2].
Taken in the same sequence, the figures for `Cc1cc(=O)[nH]c(C(C)C)n1` [2-Isopropyl-6-methyl-pyrimidin-4-ol] were 8.01 min and 7.61 min.
Regarding `CC(C)(C)C(=O)C(Oc1ccc(Cl)cc1)n1ccnc1` (stereo unspecified) [Climbazole], the figures for the LC retention time in series [1] and in series [2] were 15.1 min and 13.2 min, respectively.
For `COc1ncnc(NS(=O)(=O)c2ccc(N)cc2)c1OC` [Sulfadoxine] the same measures were 6.19 min and 8.86 min.
Taken in the same sequence, the figures for `COc1ccc2c(c1O)-c1c(OC)c(OC)cc3c1C(C2)N(C)CC3` (single isomer, unassigned; (+)) [(+)-Isocorydin] were 13.6 min and 8.65 min.
In the case of `Cc1cccc(N(C)C(=S)Oc2ccc3ccccc3c2)c1` [Tolnaftate], the LC retention time in series [1] is 17 min; in series [2] it was 16.6 min.
Take `CCOP(=O)(NC(C)C)Oc1ccc(S(C)(=O)=O)c(C)c1` (stereo unspecified) [Fenamiphos-sulfone]: the LC retention time in series [1] was 12.4 min; in series [2] it was 12.2 min.
As to `CNCCCC12CCC(c3ccccc31)c1ccccc12` [Maprotiline], the results for the LC retention time in series [1] and in series [2] were 15.4 min and 12.8 min, respectively.
Turning to `O=C(O)COc1ccc(Cl)cc1Cl` [2,4-Dichlorophenoxyacetic acid], the LC retention time is 10.6 min in series [1] and 12.9 min in series [2].
For `O=C(Nc1ccccc1)Nc1ccccc1Cl` [1-(2-CHLOROPHENYL)-3-PHENYLUREA] the same measures were 14.2 min and 13.9 min.
Turning to `CN(C(=O)COc1nc2ccccc2s1)c1ccccc1` [Mefenacet], the LC retention time was 14.9 min in series [1] and 14.6 min in series [2].
In the case of `CC1CC2C3CCC4=CC(=O)C=CC4(C)C3(F)C(O)CC2(C)C1(O)C(=O)CCl` (stereo unspecified) [Clobetasol], the results for the LC retention time in series [1] and in series [2] were 14.4 min and 14.1 min, respectively.
Consider `CN(C)S(=O)(=O)c1ccc(N)cc1` [4-Amino-N,N-dimethylbenzenesulfonamide], for which the LC retention time in series [1] was 8.01 min; in series [2], 7.95 min.
`COC(=O)Nc1nc2ccc(C(=O)c3ccccc3)cc2[nH]1` [Mebendazole]: the LC retention time is 12.9 min in series [1] and 12.5 min in series [2].
Taken in the same sequence, the figures for `CC12C=CC(=O)C=C1CCC1C3CC(O)C(O)(C(=O)CO)C3(C)CC(O)C12F` (stereo unspecified) [Triamcinolone] were 10.1 min and 10 min.
As for `CCCN(CCC)CCc1cccc2c1CC(=O)N2` [Ropinirole], the LC retention time is 15.2 min in series [1] and 8.08 min in series [2].
As for `CCCCCCCCn1sccc1=O` [2-Octyl-4-isothiazolin-3-one], the values for the LC retention time in series [1] and in series [2] were 15.3 min and 15 min, respectively.
With `OC(Cc1ccccc1Cl)(Cn1cncn1)C1(Cl)CC1` (stereo unspecified) [Prothioconazole-desthio], the LC retention time in series [1] is 15.3 min; in series [2] it was 15 min.
`CCCCCCCCCCOC(=O)c1ccccc1C(=O)OCCCCCCCCCC` [Didecylphthalat]: the figures for the LC retention time in series [1] and in series [2] were 21.4 min and 20.1 min, respectively.
For `CN1COCN(Cc2cnc(Cl)s2)C1=N` the same measures were 6.91 min and 6.25 min.
For `Nc1ccc(S(=O)(=O)Nc2ncccn2)cc1` [Sulfadiazin] the same measures were 2.61 min and 6 min.
For `c1ccc(C2CN3CCSC3=N2)cc1` (stereo unspecified) [Levamisole], the LC retention time is 11.8 min in series [1] and 6.7 min in series [2].
Turning to `CC(=O)OCC(=O)C12OC3(CCCC3)OC1CC1C3CCC4=CC(=O)C=CC4(C)C3(F)C(O)CC12C` (stereo unspecified) [Amcinonide], the LC retention time in series [1] was 16 min; in series [2] it was 15.6 min.
Turning to `COP(=S)(OC)Oc1ccc(S(C)=O)c(C)c1` (stereo unspecified) [Fenthion-sulfoxide], the LC retention time is 12.3 min in series [1] and 12.1 min in series [2].
Turning to `COCN(COC)c1nc(N(COC)COC)nc(N(COC)COC)n1` [Hexa(methoxymethyl)melamine], the LC retention time in series [1] is 12.9 min; in series [2], 12.6 min.
In the case of `Cn1cnc2c1c(=O)[nH]c(=O)n2C` [Theobromine], the LC retention time in series [1] is 5.86 min; in series [2], 5.9 min.
Taken in the same sequence, the figures for `CN(C)CCOC(C)(c1ccccc1)c1ccccn1` (stereo unspecified) [Doxylamine] were 14 min and 8.49 min.
`O=C(Oc1ccccc1)c1ccccc1C(=O)Oc1ccccc1` [Diphenylphthalate]: the LC retention time was 16 min in series [1] and 15.7 min in series [2].
`O=C(O)Cc1ccccc1Nc1c(Cl)cc(O)cc1Cl` [4-Hydroxy-Diclofenac]: the LC retention time is 10.7 min in series [1] and 13.7 min in series [2].
For `NCCc1ccc(O)c(O)c1` [Dopamine] the same measures were 6.92 min and 6.88 min.
Regarding `Cc1nc2n(c(=O)c1CCN1CCC(c3noc4cc(F)ccc34)CC1)CCCC2` [Risperidone], the LC retention time in series [1] is 14.7 min; in series [2], 10.5 min.
For `CON=C1CC2(CC3CC(CC=C(C)CC(C)C=CC=C4COC5C(O)C(C)=CC(C(=O)O3)C45O)O2)OC(C(C)=CC(C)C)C1C` (stereo unspecified) [Moxidectin] the same measures were 19 min and 18.6 min.
Taken in the same sequence, the figures for `C#CC1(O)C=CC2C3CCC4=CC(=O)CCC4C3CCC21CC` (stereo unspecified) [Gestoden] were 14.3 min and 14 min.
For `CC(COc1ccccc1Cc1ccccc1)N1CCCCC1` (stereo unspecified) [Benproperine] the same measures were 18.2 min and 13.1 min.
Regarding `CC1(C)OC2CC3C4CCC5=CC(=O)C=CC5(C)C4C(O)CC3(C)C2(C(=O)CO)O1` (stereo unspecified) [Desonide], the LC retention time in series [1] was 13.9 min; in series [2], 13.6 min.
For `O=c1[nH]c2ccccc2n1CCCN1CCC(n2c(=O)[nH]c3cc(Cl)ccc32)CC1` [Domperidone] the same measures were 14.8 min and 10.7 min.
Regarding `Cc1c(C(C)C)c(=O)n(-c2ccccc2)n1C` [Propyphenazone], the LC retention time was 12.6 min in series [1] and 12.3 min in series [2].
Consider `C=C1CC(=CC)C(=O)OC2CCN3CC=C(COC(=O)C1(C)O)C23` (stereo unspecified) [Seneciphylline], for which the LC retention time in series [1] was 11.8 min; in series [2], 7.89 min.
In the case of `CC1CCC2(OC1)OC1CC3C4CC=C5CC(O)CCC5(C)C4CCC3(C)C1C2C` (stereo unspecified) [Diosgenin], the LC retention time was 19.6 min in series [1] and 19 min in series [2].
Take `CC1CC2C3CCC4=CC(=O)C=CC4(C)C3(F)C(O)CC2(C)C1(O)C(=O)CO` (stereo unspecified) [Dexamethasone]: the LC retention time is 13.5 min in series [1] and 13.2 min in series [2].
On to `Cc1c(C=O)c(=O)n(-c2ccccc2)n1C` [4-Formyl-antipyrine], for which the LC retention time in series [1] was 7.74 min; in series [2], 7.75 min.
For `CNc1cnn(-c2cccc(C(F)(F)F)c2)c(=O)c1Cl` [Norflurazon], the LC retention time is 13.5 min in series [1] and 13.3 min in series [2].
Taken in the same sequence, the figures for `CCC1CCCC(OC2CCC(N(C)C)C(C)O2)C(C)C(=O)C2=CC3C(C=C(C)C4CC(OC5OC(C)C(OC)C(OC)C5OC)CC43)C2CC(=O)O1` (single isomer, unassigned; isomer 2) [Spinosad (Isomer 2)] were 19.2 min and 16.1 min.
Regarding `CCC(=NOCC=CCl)C1=C(O)CC(C2CCOCC2)CC1=O` (single isomer, unassigned; peak1) [Tepraloxydim Peak1], the LC retention time in series [1] is 9.25 min; in series [2], 14.7 min.
For `COc1ccc(Cl)cc1C(=O)NCCc1ccc(S(=O)(=O)NC(=O)NC2CCCCC2)cc1` [Glibenclamide], the LC retention time was 13.9 min in series [1] and 14.9 min in series [2].
Take `CCCC(CCC)C(=O)O` [Valproic acid]: the LC retention time in series [1] is 10.2 min; in series [2], 14.2 min.
Take `Oc1cc(-c2ccc(Cl)cc2)ccc1Cl` [3-Hydroxy-4,4'-dichlorobiphenyl]: the LC retention time is 16 min in series [1] and 15.9 min in series [2].
For `COc1cc2c(cc1OC)C1Cc3ccc(OC)c(OC)c3CN1CC2` (stereo unspecified) [Tetrahydropalmatin], the LC retention time in series [1] is 14.8 min; in series [2], 9.6 min.
